Source: PMC7078479, “Sulfamoyl Heteroarylcarboxylic Acids as Promising Metallo-β-Lactamase Inhibitors for Controlling Bacterial Carbapenem Resistance” (mBio, 2020)
Like-named read-outs stand apart in the source and are kept apart here.

What was measured:
VIM-2 = target: T1, VIM-2 (Escherichia coli, UniProt Q5U7L7); test: Inhibition of IPM hydrolysis by purified VIM-2, Ki by Lineweaver-Burk plots; type: biochemical; conditions: IPM as substrate, competitive model, mean of three replicates; read-out: Inhibition constant Ki VIM-2
T1 construct: made in house
Procedure: (§1) MBL (10 nM) was mixed with the inhibitors and incubated for 5 min at 30°C. IPM was added to reach a concentration of 150 μM, and the velocity of IPM hydrolysis was monitored at 298 nm. The assay was performed at 30°C using 10 mM HEPES (pH 7.5) buffer containing 200 mM NaCl and 50 μg/ml bovine serum albumin (BSA) for IMP-1, NDM-1, VIM-2, and SMB-1. For SFH-1 and L1, another 10 mM HEPES (pH 7.5) buffer containing 200 mM NaCl, 20 μM ZnSO4, and 50 μg/ml BSA was used.
(§2) Initial velocities (vo) were measured after varying the concentrations of IPM and inhibitors, and inverse velocities (1/vo) were plotted against inverse IPM concentrations […]. Lineweaver-Burk plots were constructed to obtain the inhibition constant (Ki) with the competitive inhibition model using the SigmaPlot 13 suite (Hulinks).

NDM-1 = target: T2, NDM-1 (Klebsiella pneumoniae, UniProt C7C422); test: Inhibition of IPM hydrolysis by purified NDM-1, Ki by Lineweaver-Burk plots; type: biochemical; conditions: IPM as substrate, competitive model, mean of three replicates; read-out: Inhibition constant Ki NDM-1
T2 construct: made in house
Procedure: as §1, §2

IMP-1 = target: T3, IMP-1 (Serratia marcescens, UniProt P52699); test: Inhibition of IPM hydrolysis by purified IMP-1, Ki by Lineweaver-Burk plots; type: biochemical
T3 construct: made in house
Procedure: as §1, §2

[1] = system: IMP producers rather than NDM/VIM producers; conditions: cited from earlier work
E. coli DH5α/pBC-NDM-1 = test: Susceptibility and checkerboard testing, NDM-1-producing E. coli; type: cell-based, Escherichia coli; conditions: for MIC: Escherichia coli
Procedure: (§3) MICs were determined via the microdilution method according to the CLSI guidelines ([38]). In brief, 5 × 10^4 bacterial cells were inoculated in 100 μl of cation-adjusted Mueller-Hinton broth (Becton, Dickinson and Company, Franklin Lakes, NJ) containing the β-lactams and appropriately diluted inhibitors. The final concentration of DMSO was maintained at 2% in the assays. The tested plates were then incubated at 35°C for 16 to 20 h. The MIC value was determined as the lowest concentration of tested β-lactams where no bacterial growth was visibly observed. The optical density at 600 nm (OD600) value was measured using a plate reader for drawing the heat maps. The FIC index value was calculated using the following equation: FIC index=MIC of β-lactam with inhibitor/MIC of β-lactam alone+MIC of inhibitor with β-lactam/MIC of inhibitor alone
(§4) Unless noted otherwise, the FIC index was defined as the lowest value among all obtained values. The synergistic effect was defined as the effect observed when the FIC index value was ≤0.5.

[2] = system: IMP-1-producing E. coli NUBL-24; test: Mouse infection model, E. coli NUBL-24, survival; type: in vivo, mice; conditions: MPM 0.8 mg/kg and SPC 10 mg/kg versus MPM alone, E. coli NUBL-24 1 × 10^7 CFU
Procedure: (§5) All experiments were approved by the Nagoya University Animal Ethics Committee, and all experiments were performed in a manner that minimized animal suffering. Male CD1 mice (4 weeks old; 20 to 25 g body weight) were purchased from Charles River Laboratories Japan (Yokohama, Japan). E. coli NUBL-24 (blaIMP-1) and K. pneumoniae MS5674 (blaNDM-1 and blaVIM-1) strains were inoculated on LB agar plates and grown for 18 h at 37°C. Bacteria were then scraped from the plates, and their concentration was adjusted to 5 × 10^6 to 1 × 10^7 CFU in saline solution containing 5% mucin; this solution was then i.p. injected into the mice. At 1 and 3 h after infection, saline solution, MPM, inhibitors, and a combination of MPM and inhibitor were i.p. injected. Mice were monitored for 7 days to formulate survival curves, after which they were euthanized by CO2 asphyxiation.

E. coli DH5α/pBC-TMB-2 = test: Susceptibility testing, TMB-2-producing E. coli; type: cell-based; conditions: Escherichia coli
Procedure: as §3

[3] = Human liver microsomal stability test; type: in vitro ADME; conditions: 100 nM compound, 0.1 mg protein/ml, 35 min, 37°C
Procedure: Human liver microsomal stability tests were performed by Sumika Chemical Analysis Service (Osaka, Japan). Compounds (100 nM) were incubated with human liver microsomes (0.1 mg protein/ml) for 35 min at 37°C and subjected to liquid chromatography-tandem mass spectrometry (LC-MS/MS) for quantification of the loss of the tested compounds.

E. coli DH5α/pBC-VIM-2 = test: Susceptibility and checkerboard testing, VIM-2-producing E. coli; type: cell-based, Escherichia coli; conditions: for MIC: Escherichia coli
Procedure: as §3, §4

HeLa cells = test: Toxicity assay in HeLa cells (CellTiter 96 AQueous); type: cell-based; conditions: 24 h exposure, cell proliferation assay
Procedure: HeLa cells were seeded at 5,000 cells per well in 96-well plates and cultured in Dulbecco’s modified Eagle’s medium (DMEM) (Wako Pure Chemical Industries, Osaka, Japan). After incubation for 24 h at 37°C with 5% CO2, staurosporine (Sigma-Aldrich, St. Louis, MO) and SHCs were added to each well (final DMSO concentration was 1%), after which the plates were incubated for another 24 h. Twenty microliters of tetrazolium solution, obtained from a CellTiter 96 AQueous one-solution cell proliferation assay kit (Promega, Madison, WI), was added into each well. The plate was incubated for 3 h under the same conditions mentioned above, and the absorbance at 490 nm was measured for the determination of cell proliferation.

[4] = system: E. coli BL21(DE3)/pET-KHM-1; test: Susceptibility testing, KHM-1-producing E. coli; type: cell-based; conditions: Escherichia coli
Procedure: as §3

E. coli DH5α/pBC-IMP-1 = test: Susceptibility and checkerboard testing, IMP-1-producing E. coli; type: cell-based, Escherichia coli; conditions: for MIC: Escherichia coli
Procedure: as §3, §4

[5] = system: E. coli BL21(DE3)/pET-DIM-1; test: Susceptibility testing, DIM-1-producing E. coli; type: cell-based; conditions: Escherichia coli
Procedure: as §3

[6] = system: dually NDM-1/VIM-1-producing Klebsiella pneumoniae MS5674; test: Mouse infection model, K. pneumoniae MS5674, survival; type: in vivo, mice; conditions: MPM 4 mg/kg and SPC 10 mg/kg versus MPM alone, K. pneumoniae MS5674 1 × 10^7 CFU
Procedure: as §5

[7] = system: IMP-type MBL-producing Enterobacteriaceae; test: Susceptibility testing, 19 IMP-type MBL-producing Enterobacteriaceae isolates; type: cell-based
Procedure: as §3

[8] = system: P. aeruginosa PAO1/pME-VIM-2; test: Susceptibility testing, VIM-2-producing P. aeruginosa PAO1; type: cell-based; conditions: Pseudomonas aeruginosa
Procedure: as §3

[9] = system: IMP-1-producing Acinetobacter spp.; test: Susceptibility testing, 8 IMP-1-producing Acinetobacter spp. isolates; type: cell-based; conditions: addition of SPC, concentration not given (Fig. S5)
Procedure: as §3

[10] = system: E. coli BL21(DE3)/pET-SPM-1; test: Susceptibility testing, SPM-1-producing E. coli; type: cell-based; conditions: Escherichia coli
Procedure: as §3

[11] = system: P. aeruginosa PAO1/pME-NDM-1; test: Susceptibility testing, NDM-1-producing P. aeruginosa PAO1; type: cell-based; conditions: Pseudomonas aeruginosa
Procedure: as §3

[12] = system: NDM-type MBL-producing Enterobacteriaceae; test: Susceptibility testing, 14 NDM-type MBL-producing Enterobacteriaceae isolates; type: cell-based; conditions: NDM producers
Procedure: as §3

[13] = system: P. aeruginosa PAO1/pME-IMP-1; test: Susceptibility testing, IMP-1-producing P. aeruginosa PAO1; type: cell-based; conditions: Pseudomonas aeruginosa
Procedure: as §3

[14] = system: E. coli BL21(DE3)/pET-SIM-1; test: Susceptibility testing, SIM-1-producing E. coli; type: cell-based; conditions: Escherichia coli
Procedure: as §3

[15] = read-out: MIC of MPM + inhibitor (8 μg/ml)
[16] = read-out: MIC of MPM + inhibitor (32 μg/ml)
[17] = PAO1, read-out: MIC of MPM + inhibitor (10 μg/ml)
[18] = PAO1, read-out: MIC of MPM + inhibitor (50 μg/ml)

T2 sequence (C7C422 29-270 limits assumed): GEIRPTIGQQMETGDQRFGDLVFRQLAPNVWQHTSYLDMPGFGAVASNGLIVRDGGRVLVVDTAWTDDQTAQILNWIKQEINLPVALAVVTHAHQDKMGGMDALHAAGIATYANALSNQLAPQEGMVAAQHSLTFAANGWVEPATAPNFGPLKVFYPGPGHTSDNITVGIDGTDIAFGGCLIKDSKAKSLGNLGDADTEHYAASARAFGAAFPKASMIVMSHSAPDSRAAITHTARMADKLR
T3 sequence (P52699 19-246 limits assumed): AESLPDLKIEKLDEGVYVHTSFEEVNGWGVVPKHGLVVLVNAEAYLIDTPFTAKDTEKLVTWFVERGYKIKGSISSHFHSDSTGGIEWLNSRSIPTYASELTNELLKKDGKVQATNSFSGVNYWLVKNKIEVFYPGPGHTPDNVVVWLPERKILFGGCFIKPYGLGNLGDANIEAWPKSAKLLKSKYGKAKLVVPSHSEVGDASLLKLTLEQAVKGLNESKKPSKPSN

Q: For `Cc1c(C(=O)O)c(S(N)(=O)=O)c(C)n1C` [Compound 7, 1,2,5-trimethyl-4-sulfamoylpyrrole-3-carboxylic acid], which Ki (VIM-2) is on record?
A: 0.42 µM

Q: And the Ki (NDM-1)?
A: 9.08 µM

Q: What about the Ki (IMP-1) of the same compound?
A: 1.23 µM

Q: What does the source list for `Cc1c(C(=O)O)c(S(N)(=O)=O)c(C)n1C1CC1` [Compound 9, 1-cyclopropyl-2,5-dimethyl-4-sulfamoylpyrrole-3-carboxylic acid]?
A: Ki (VIM-2): 1.7 µM; Ki (NDM-1): 4.85 µM; Ki (IMP-1): 14.1 µM

Q: With `Cc1c(C(=O)O)c(S(N)(=O)=O)c(C)n1-c1ccccc1` [Compound 10, 2,5-dimethyl-1-phenyl-4-sulfamoylpyrrole-3-carboxylic acid] as the compound, how does the Ki (VIM-2) read?
A: 20.8 µM

Q: What about the Ki (NDM-1) of the same compound?
A: 10.2 µM

Q: And the Ki (IMP-1)?
A: 7.51 µM

Q: For `CC/C(C(=O)[O-])=C(\CC)C(=O)[O-].[Na+].[Na+]` [ME1071], which “Selectivity between IMP and NDM/VIM producers” value [1] is on record?
A: superior for IMP

Q: With `O=C(O)/C(S)=C/c1c(Cl)ccc(Cl)c1Cl` [ML302F] as the compound, how does the “Selectivity between IMP and NDM/VIM producers” value [1] read?
A: superior for IMP

Q: For `CN1CCN(NC(=O)CN2C(=O)/C(=C/c3c(Cl)ccc(Cl)c3Cl)SC2=S)CC1` [ML302], which “Selectivity between IMP and NDM/VIM producers” value [1] is on record?
A: superior for IMP

Q: For `CCc1c(C(=O)O)c(S(N)(=O)=O)c(CC)n1C` [SPC, 2,5-diethyl-1-methyl-4-sulfamoylpyrrole-3-carboxylic acid], which “Reduction in MPM MIC” value (E. coli DH5α/pBC-NDM-1; E. coli DH5α/pBC-NDM-1, 2 μg/ml compound) is on record?
A: 256 fold

Q: And the MIC (E. coli DH5α/pBC-NDM-1; [15])?
A: ≤ 0.25 µg/mL

Q: And the MIC (E. coli DH5α/pBC-NDM-1; [16])?
A: ≤ 0.25 µg/mL

Q: And the “Mortality of infected mice under MPM-SPC combination therapy” value [2]?
A: significantly reduced the mortality

Q: And the MIC (E. coli DH5α/pBC-TMB-2; [15])?
A: 0.063 µg/mL

Q: And the MIC (E. coli DH5α/pBC-TMB-2; [16])?
A: 0.031 µg/mL

Q: What about the “Stability in human liver microsomes” value [3] of the same compound?
A: high stability

Q: And the “Reduction in CAZ MIC” value (E. coli DH5α/pBC-VIM-2; E. coli DH5α/pBC-VIM-2, 2 μg/ml compound)?
A: 16 fold

Q: What about the MIC (E. coli DH5α/pBC-VIM-2; read-out: MIC of CAZ + inhibitor (8 μg/ml)) of the same compound?
A: 1 µg/mL

Q: What about the MIC (E. coli DH5α/pBC-VIM-2; read-out: MIC of CAZ + inhibitor (32 μg/ml)) of the same compound?
A: 1 µg/mL

Q: And the “Toxicity in HeLa cells” value (HeLa cells)?
A: low toxicity

Q: What about the MIC [4, 15] of the same compound?
A: 0.125 µg/mL

Q: What about the MIC [4, 16] of the same compound?
A: 0.063 µg/mL

Q: What about the “Reduction in MPM MIC” value (E. coli DH5α/pBC-IMP-1; E. coli DH5α/pBC-IMP-1, 2 μg/ml compound) of the same compound?
A: 32 fold

Q: And the MIC (E. coli DH5α/pBC-IMP-1; [15])?
A: 0.031 µg/mL

Q: And the MIC (E. coli DH5α/pBC-IMP-1; [16])?
A: 0.031 µg/mL

Q: And the MIC [5, 15]?
A: 2 µg/mL

Q: What about the MIC [5, 16] of the same compound?
A: 0.063 µg/mL

Q: And the Ki (VIM-2)?
A: 0.02 µM

Q: And the “Mortality of infected mice under MPM-SPC combination therapy” value [6]?
A: significantly reduced the mortality

Q: What about the “Isolates whose MPM MIC decreased to susceptibility criteria (MIC ≤1 μg/ml)” value ([7]; addition of inhibitor, concentration not given (Fig. S5), IMP-producing Enterobacteriaceae) of the same compound?
A: 17/19

Q: What about the “Isolates with equal or increased reactivity toward SPC instead of SFC” value ([7]; reduction in MPM MIC, 4 μg/ml SPC and SFC, IMP producers) of the same compound?
A: 18/19

Q: What about the MIC [8, 17] of the same compound?
A: 8 µg/mL

Q: What about the MIC [8, 18] of the same compound?
A: 4 µg/mL

Q: What about the “Isolates whose MPM MIC decreased to susceptibility criteria (MIC ≤2 μg/ml)” value [9] of the same compound?
A: 6/8

Q: And the MIC [10, 15]?
A: 0.063 µg/mL

Q: And the MIC [10, 16]?
A: 0.063 µg/mL

Q: And the MIC [11, 17]?
A: 4 µg/mL

Q: And the MIC [11, 18]?
A: 4 µg/mL

Q: And the Ki (NDM-1)?
A: 0.84 µM

Q: And the “Isolates whose MPM MIC decreased to susceptibility criteria (MIC ≤1 μg/ml)” value ([12]; addition of inhibitor, concentration not given (Fig. S5))?
A: 7/14

Q: What about the “Isolates with equal or increased reactivity toward SPC instead of SFC” value ([12]; reduction in MPM MIC, 4 μg/ml SPC and SFC) of the same compound?
A: 14/14

Q: What about the Ki (IMP-1) of the same compound?
A: 0.26 µM

Q: What about the MIC [13, 17] of the same compound?
A: 64 µg/mL

Q: And the MIC [13, 18]?
A: 16 µg/mL

Q: And the MIC [14, 15]?
A: 1 µg/mL

Q: What about the MIC [14, 16] of the same compound?
A: 0.125 µg/mL

Q: Which “Selectivity between IMP and NDM/VIM producers” value [1] does the source give for `NCCN[C@H]1CC[C@H](CC(=O)N[C@H]2Cc3cccc(C(=O)O)c3OB2O)CC1` [VNRX-5133, taniborbactam] here?
A: superior for NDM/VIM
